Data from patent EP1224486B1, “USE OF DOUBLE-QUANTUM 1H-NMR SPECTROSCOPY FOR THE IDENTIFICATION OF LIGANDS INTERACTING WITH TARGET BIOMOLECULES” (Pharmacia Italia S.p.A., priority 1999, dated 2001).
Non-standard residues stand in square brackets, D forms with d. Residues, ends and D or L forms follow the SMILES beside them. pY = N[C@@H](Cc1ccc(OP(=O)(O)O)cc1)C(=O)O

How the values were obtained:
Grb2-SH2 domain [1] = molecular target: T1, Grb2-SH2 domain (Homo sapiens, UniProt P62993); assay: 2D 1H double-quantum (DQ) NMR screening of compound mixtures with and without the protein; format: binding; conditions: 25°C, pH 6.2; for identification as ligand by comparison of 2D DQ spectra and 2D DQ difference spectrum: mixture 2, 300 µM each compound, 50 µM protein (6:1)
T1 construct: The SH2 domain of Grb2 was expressed in E. coli as GST fusion proteins; GST (cleaved yes); made in house; host or cells: E. coli
Method: The feasibility of the invention in identifying ligands was tested with mixtures of compounds against the Grb2-SH2 domain. […] Figure 2 illustrates the DQ fingerprint region of a compound mixture (mixture 1) recorded with the pulse sequence of Figure 1a in the absence (a) and in the presence (b) of the protein. […] The NH protein resonances are not visible in Figure 2 (b) due to their short T (SQ)/(2) [formula] and T^DQ and the lower protein concentration (50 µM). The protein aromatic resonances have a longer T (SQ)/(2) [formula] and T^DQ compared to the amide resonances and their presence in the DQ spectrum may interfere with the observation of the ligand signals. Figure 3(a) illustrates the aromatic region of the 2D relaxation weighted DQ spectrum for mixture 1. Figures 3 (b) and (c) depict the same spectral region of the 2D DQ and relaxation weighted DQ spectrum of mixture 1 in the presence of the Grb2 SH2 domain, respectively. […] The large linewidth of all the protein resonances and the antiphase character of the DQ multiplets along ω2 results in complete cancellation of the positive and negative lobes. […] Only the compound resonances that display changes in intensity or chemical shift in the presence of the protein will be visible in the difference spectrum.
All the spectra were acquired at 25°C with the pulse sequences of Figure 1 using a Varian Inova 600 MHz spectrometer equipped with a 5 mm triple-resonance inverse probe and actively shielded x, y, and z- gradient coils. The DQ spectra were collected using 8 to 32 transients for each of the 256 t1 increments (128 t1 values for both the echo and antiecho pathway selections) and with 2048 points in t2. The data were multiplied with a cosine window function in both dimensions prior to the Fourier transformation.
The excitation DQ period τ was 42 ms long and the angle β of the detection pulse was set to 45° and 135° for the antiecho and echo coherence pathway selection, respectively. The coherence selection gradients G1 to G3 were set at the magic angle using only the x and z components of the gradients. The first two PFGs applied at the beginning and end of the excitation double-quantum period were weak gradients for radiation damping suppression. The 2D spectral differencing was performed with the software provided by Varian. The scaling factor used in the examples reported here was -1. However it can be adjusted manually for allowing small variations in concentration of the protein-ligand mixture and ligand mixture solutions.

Grb2-SH2 domain [2] = assay: 2D 1H double-quantum NMR screening of compound mixtures for ligand binding; conditions: mixture 2, each compound 300 µM, protein 50 µM (6:1), 25°C, pH 6.2
Source text: From a practical point of view, the steps involved in the detection of binding are preferably the following: • a) mixing together from 1 to n chemical compounds not interacting with each other; • b) recording a two-dimensional ^1H DQ or DQC (refocussed or not) relaxation weighted DQ spectrum (preferentially version with PFG) for the said compound mixture in the absence of the target biomolecule; • c) mixing the said compound mixture with the target biomolecule where each of the molecules comprising the mixture is preferably present at a molar ratio to the target biomolecule of about 1:1 to about 20:1 • d) recording a two-dimensional ^1H DQ or DQC (refocussed or not) relaxation weighted DQ spectrum (preferentially version with PFG) for the said compound mixture in the presence of the target biomolecule; • e) comparing the spectra recorded in steps b) and d) to detect which, if any of the chemical entities of the mixture, has interacted with the target biomolecule; and, optionally • f) recording a two-dimensional ^1H DQ or DQC (refocussed or not) relaxation weighted DQ spectrum (preferentially version with PFG) for each of the compounds which have been detected in step (e) above, with and without the target protein.
The feasibility of the invention in identifying ligands was tested with mixtures of compounds against the Grb2-SH2 domain. […]

T1 sequence (P62993 60-152 limits assumed): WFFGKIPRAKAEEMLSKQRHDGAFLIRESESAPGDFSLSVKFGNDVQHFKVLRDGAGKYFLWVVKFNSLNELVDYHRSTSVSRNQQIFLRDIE

Compound	identification as ligand by comparison of 2D DQ spectra and 2D DQ difference spectrum (Grb2-SH2 domain [1])	further results
CC(=O)N[C@@H](Cc1ccc(OP(=O)(O)O)cc1)C(=O)N[C@H](C(N)=O)C(C)C [Ac-Tyr(PO3H2)-Val-NH2] (Ac-[pY]-Val-NH2)	potential very weak ligand	identification as ligand by comparison of 2D DQ spectra and 2D DQ difference spectrum (Grb2-SH2 domain [1]; listed as compound B): possible weak interaction
c1ccc2[nH]ccc2c1 [Indole, indole]	–	identification as ligand (2D DQ spectra and 2D DQ difference spectrum with/without protein) (Grb2-SH2 domain [2]): do not interact with the protein
Ac-(N-Me)Phe(p-CH2PO3H2)-Val-Asn-NH-CH2-CH(CH3)2	–	identification as ligand by comparison of 2D DQ spectra (Grb2-SH2 domain [1]; mixture 1, 100 µM each compound, 50 µM protein (2:1)): ligand for Grb2-SH2

Continued, in another order:

identification as ligand by comparison of 2D DQ spectra and 2D DQ difference spectrum (Grb2-SH2 domain [1])	Compound	further results
potent ligand	Ac-Tyr(PO3H2)-Val-NH-CH2-CH2-CONH2	–
do not interact with the protein	Ac-Tyr-Val-Asn-Val-OH (Ac-YVNV-OH)	–
